{"source": "patent US10369123B2", "about": "“Perk activator for the treatment of neurodegenerative diseases” (DEUTSCHES ZENTRUM FÜR NEURODEGENERATIVE ERKRANKUNGEN E.V. …, priority 2014, dated 2019)", "key": {"[1]": {"test_system": "P301S tau transgenic mice", "test": "Morris water maze", "assay_type": "in vivo, mouse", "settings": "2 mg/kg i.p. once daily, tested at 15 weeks of age", "description": "(§1) All animal work was conducted either on CR57BL/6 mice, obtained from Charles River Laboratories, Wilmington, Mass., USA, or on homozygous transgenic mice overexpressing human tau with the P301S mutation on a C57BL/6 background, originally developed by Michel Goedert (Xu et al. 2014), obtained by own breeding. Animals were kept at 23±1° C. under standard 12 h light-dark cycle with free access to food and water. They were handled according to the EU Council Directive 2010/63/EU, the Guide for the Care and Use of Laboratory Animals (National Research Council 2011) and the guidelines of the local institutional committee. The experiments were authorized by the local authority “Regierung von Oberbayern” under application number 55.2-1-54-2532-165-13. […]\n(§2) For the efficacy trial in the early disease stage (Xu et al. 2014), P301S mice (n=8 per group) and wild type littermates (n=9 per group) received once daily i.p. injections of 2 mg/kg CCT020312 or equivalent volumes of saline from 9 to 14 weeks of age; they were analyzed with the Morris Water Maze in the 15th week of age.\nTo analyze spatial learning and memory, the Morris water maze test was performed at 15 weeks of age (n=8 per group) in a cylindrical water basin (diameter 120 cm) filled with water with a depth of 31 cm. […] Tracks of training and probe trial were recorded with the computerized Viewer2 system (Biobserve, Mannheim, Germany)."}, "[2]": {"test_system": "wild type and P301S tau mice", "assay_type": "in vivo, mouse", "description": "as §1, §2\n(§3) For the efficacy trial in the late disease stage (Xu et al. 2014), P301S mice and wild type littermates received once daily i.p. injections of 2 mg/kg CCT020312 or saline from 17 to 22 weeks of age (n=12 for CCT020312 treated P301S mice, n=9 for other groups); they were analyzed with the Rotarod test in the 23rd week of age."}, "[3]": {"test_system": "paired helical filament tau (AT180)", "test": "Immunohistochemistry of P301S mouse hippocampus", "assay_type": "in vivo", "settings": "P301S mice, 2 mg/kg i.p. once daily for 6 weeks from 17 weeks of age, vs saline", "description": "as §3\nTwelve hours after the last injection, animals were anesthetized by i.p. injections of pentobarbital at (100 mg/kg) and transcardially perfused with 0.1 M phosphate buffer for 2 min, then fixed for 10 min with 4% paraformaldehyde. Post-fixation of the brain was done in 4% paraformaldehyde at 4° C. for 48 h. Their brains were prepared for histological analysis, as described (Xu et al. 2014). For the immunoblot analysis in P301S mice and wild type mice were sacrificed by cervical dislocation, their brains were frozen on dry ice and stored at −80° C. for Western blot analysis.\nFixed brains (n=6 per group) were cut into 30 μm-thickness of coronal sections with a cryomicrotome (CM3050 S, Leica). […]"}, "[4]": {"test_system": "3R/4R MAPT mRNA, splicing factor SRSF2", "test": "Quantitative PCR of MAPT isoforms and splicing factors, annonacin model", "assay_type": "cell-based, human", "settings": "annonacin + PERK activator", "description": "Nunc™ Nunclon™ Delta 6-well (for protein and mRNA) or 48-well (for cell assays) plates (Thermo Fisher Scientific, Waltham, Mass., USA) were coated with 100 μg/ml poly-L-lysine (Sigma-Aldrich, St. Louis, Mo., USA) and 5 μg/ml fibronectin (Sigma-Aldrich). LUHMES (Lund Human Mesencephalic) cells, derived from human embryonic ventral mesencephalic cells by conditional immortalization (Tet-off v-myc over-expression) were seeded out in a concentration of 130,000 cells/cm^2 to achieve a confluence of 50%. They were then differentiated for 8 days in a medium of DMEM/F12 (Sigma-Aldrich), 1 μg/ml tetracycline, […] and 490 μg/ml dbcAMP into post-mitotic neurons with a dopaminergic phenotype (Lotharius et al. 2005).\nFor all experiments with annonacin, the medium was replaced during the intoxication period with new medium containing glucose levels reduced to 250 μM, i.e. the physiological concentration in the human brain.\nRNA from human tissue samples was extracted by grinding the tissue in liquid nitrogen to a powder and then dissolving it in the RA1 buffer supplied as part of the NucleoSpin® RNA (Macherey Nagel) RNA extraction kit+1% (v/v) 2-mercaptoethanol (Sigma-Aldrich). RNA from cells was extracted by scraping the cells from the culture plate with RA1 buffer+1% (v/v) 2-mercaptoethanol. The remaining extraction procedure was according to the manufacturer's instructions for the NucleoSpin® RNA kit. RNA concentrations were determined using the NanoDrop 2000c Spectrophotometer. The RNA was then transcribed into cDNA with the iScript™ cDNA Synthesis Kit (BioRad) using the manufacturer's instructions. Real-Time PCR was performed on the Applied Biosystems® StepOnePlus™ (Life Technologies) system using TagMan® Universal Master Mix II and TaqMan® primers against total MAPT, MAPT 3R, MAPT 4R, EIF2A, EI2AK3 and ATF4. POL2A and PSCM1 served as reference targets as they were determined to be the most stably expressed across experimental conditions. The results were analyzed using the StepOne Plus software (Life Technologies) and Qbase software (Biogazelle) and were then graphically and statistically analyzed with Prism 6 (GraphPad Software). Absolute quantification was performed by creating a standard curve with plasmids containing either the 2N3R or the 2N4R spliced variant of MAPT (see Table 2). The absolute quantity was computed by deriving the relationship between CT values and absolute quantity with the StepOne Plus software."}}, "note": "“Also recorded” adds a separate entry of the source. Where two headings read alike, the source gives them in different places."}
{"smiles": "CCN(CC)CCC(=O)N1N=C(c2c(-c3ccccc3)c3cc(Br)ccc3[nH]c2=O)CC1c1ccc(Br)cc1", "note": "(stereo not shown) [CCT020312, 6-bromo-3-[5-(4-bromo-phenyl)-1-(3-diethylamino-propionyl)-4,5-dihydro-1H-pyrazol-3-yl]-4-phenyl-1H-quinolin-2-one]", "values": [{"measurement": "latency to find the hidden platform / learning curve", "setting": "[1]; P301S tau mice, vs saline", "value": "significantly improved; also recorded: steeper learning curve"}, {"measurement": "latency to find the hidden platform / learning curve", "setting": "[1]; wild type mice", "value": "did not significantly affect; also recorded: did not change the learning curve"}, {"measurement": "death or obvious signs of sickness during treatment", "setting": "[2]; aged wild type and P301S tau mice, 2 mg/kg once daily for 6 weeks, until 23 weeks of age", "value": "no CCT020312-treated wild type (n=9) and P301S tau mouse (n=12) died during the treatment period or showed any obvious signs of sickness"}, {"measurement": "death or obvious signs of sickness during treatment", "setting": "[2]; young wild type and P301S tau mice, 2 mg/kg for 6 weeks", "value": "No CCT020312-treated mouse of the wild type group (N=8) and of the P301S tau group (N=8) died during the treatment period or showed any obvious signs of sickness"}, {"measurement": "AT180-immunoreactivity in the hippocampal region, histology", "setting": "[3]", "value": "decreased"}, {"measurement": "annonacin-induced increase of splicing factor SRSF2", "setting": "[4]", "value": "significantly reduced"}, {"measurement": "4R-tau mRNA amount", "setting": "[4]; 48 h", "value": "reduced"}]}
